Columns and labels:
[1] = system: IFN-α2 mRNA, normal PBMCs; test: Agonist induced IFN-α2 mRNA in PBMCs from healthy donors (qRT-PCR); assay type: cell-based, human; conditions: LMW poly(I:C), serial dilutions
Excerpt: To determine if inhibition of IKKε and/or TBK1 modulates nucleic acid agonist induced gene expression, high molecular weight poly(I:C) (MDA5 agonist) and low weight poly(I:C) (RIG-I agonist) were electroporated into human peripheral blood mononuclear cells (PBMCs) obtained from normal donors, or low molecular weight Poly(I:C) was electroporated into PBMCs from donors that have Systemic Lupus Erythematosus (SLE). Induction of IFN-α2, IFN-β, and BLyS mRNA production was monitored by qRT-PCR.
Human PBMCs were collected from healthy donors using routine laboratory procedures. PBMCs from SLE patients were purchased from Astarte Biologics (Redmond, Wash.). The PBMCs were electroporated using Nucleofector® Kit V (Lonza, Walkersville, Md.) with 0.4 ug/mL of high molecular weight poly (I:C) (InvivoGen, San Diego, Calif.) or 0.4 ug/mL low molecular weight poly (I:C) (InvivoGen, San Diego, Calif.) and seeded into wells containing serial dilutions of Example Compound 5 (0.1% final DMSO concentration). […] RNA was quantitated using Quant-iT™ RiboGreen® RNA Assay Kit (Invitrogen, Carlsbad, Calif.). Reverse transcription and real-time PCR were performed using the QuantiTect Probe RT-PCR Kit (Qiagen, Germantown, Md.) and the 7300 Real-Time PCR System (Applied Biosytems, Foster City, Calif.). […]

IKKε = target: T1, IKKε (Homo sapiens, UniProt Q14164); test: In-vitro IKKε kinase assay ([γ33]ATP filter-plate); assay type: biochemical; conditions: text bins; read-out: IC50 for inhibition of the kinase activity of IKKε
T1 construct: His-tag; made in house; host or cells: Sf9 insect cells
T1 sequence (Q14164 1-716): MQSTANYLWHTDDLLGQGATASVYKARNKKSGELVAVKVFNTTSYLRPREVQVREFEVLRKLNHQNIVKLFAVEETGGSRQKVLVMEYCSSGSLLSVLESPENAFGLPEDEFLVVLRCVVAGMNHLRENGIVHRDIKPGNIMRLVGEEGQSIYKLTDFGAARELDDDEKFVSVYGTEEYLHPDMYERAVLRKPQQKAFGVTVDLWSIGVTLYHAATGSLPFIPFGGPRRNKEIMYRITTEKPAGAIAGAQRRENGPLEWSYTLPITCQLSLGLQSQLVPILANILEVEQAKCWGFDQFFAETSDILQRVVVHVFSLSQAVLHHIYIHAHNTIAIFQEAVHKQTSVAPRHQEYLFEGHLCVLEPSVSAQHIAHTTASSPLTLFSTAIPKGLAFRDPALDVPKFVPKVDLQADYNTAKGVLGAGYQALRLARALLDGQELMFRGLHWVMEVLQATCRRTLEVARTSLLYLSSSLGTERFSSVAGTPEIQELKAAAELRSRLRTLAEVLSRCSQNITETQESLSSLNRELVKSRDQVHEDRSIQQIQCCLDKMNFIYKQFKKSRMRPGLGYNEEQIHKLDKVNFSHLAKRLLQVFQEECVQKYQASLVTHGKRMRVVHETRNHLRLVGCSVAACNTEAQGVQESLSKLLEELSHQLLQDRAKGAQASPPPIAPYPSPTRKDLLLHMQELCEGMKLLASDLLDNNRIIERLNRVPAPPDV
Summary of the method: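 His-tagged Sf9-expressed kinases at 0.1 or 0.02 μg/ml (TBK1) and 0.1 or 0.015 μg/ml (IKKε) for normal and sensitized formats, with myelin basic protein or casein substrate. ATP was at 2×Km (60 μM TBK1, 32 μM IKKε) plus 0.3 μCi [γ33]ATP. Reactions ran 30-45 min, were captured on P-81 filters, and counts were normalized to DMSO.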

[2] = system: IKKε-mediated phosphorylation of IRF3; test: In-situ phosphorylation of IRF3 (pIRF3 Ser396 ELISA) in HEK293T cells cotransfected with IRF3 and IKKε; assay type: cell-based; conditions: Homo sapiens, HEK-293T; HEK293T cells, 20 hours, text bins; read-out: IC50 for inhibition of the in-situ IKKε-mediated phosphorylation of IRF3
Summary of the method: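 Cells for the IRF7 Western blots carried IRF7 and TBK1 plasmids, were seeded at 150,000/well, exposed to compound overnight and probed for pSer477/Ser479 IRF7. The ELISA readout used IRF3 + IKKε-cotransfected HEK293T at 20,000/well with 20 h treatment, quantifying pSer396 IRF3 relative to DMSO, plus a parallel CellTiter-Glo viability check.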

IC50 (IKKε): < 0.005 µM
IC50 [2]: < 0.1 µM
SMILES: N#Cc1cc(-c2ccnc(Nc3ccc(N4CCOCC4)cc3)n2)ccc1OC1CCOCC1 [Example 5, 5-(2-{[4-(Morpholin-4-yl)phenyl]amino}pyrimidin-4-yl)-2-(tetrahydro-2H-pyran-4-yloxy)benzaonitrile]
induction of IFN-α2 mRNA [1]: potently inhibited

From patent publication US20150352108A1, “AMINO-PYRIMIDINE COMPOUNDS AS INHIBITORS OF TBK1 AND/OR IKK EPSILON” (Alzheimer's Institute of America, priority 2009, published 2015)
